Measurements taken from patent US6432946B1, “3-aminoalkylamino-2H-1,4-benzoxazines and 3-aminoalkylamino-2H-1,4-benzothiazines: dopamine receptor subtype specific ligands” (Neurogen corporation, priority 1997, dated 2002).
Counter-ions that a name gives are not always drawn.

Key:
D2 receptors = molecular target: T1, D2 receptors (Chlorocebus aethiops, UniProt P52702); assay: Assay for D2 receptor binding activity (3H-YM 09151-2 displacement); set-up: species or system African Green monkey; details: COS cell pellets with recombinant receptor; 0.5 nM 3H-YM 09151-2; test compounds are acid addition salts
T1 construct: expressed in transfected cells; host or cells: COS cells
T1 sequence (P52702 whole entry): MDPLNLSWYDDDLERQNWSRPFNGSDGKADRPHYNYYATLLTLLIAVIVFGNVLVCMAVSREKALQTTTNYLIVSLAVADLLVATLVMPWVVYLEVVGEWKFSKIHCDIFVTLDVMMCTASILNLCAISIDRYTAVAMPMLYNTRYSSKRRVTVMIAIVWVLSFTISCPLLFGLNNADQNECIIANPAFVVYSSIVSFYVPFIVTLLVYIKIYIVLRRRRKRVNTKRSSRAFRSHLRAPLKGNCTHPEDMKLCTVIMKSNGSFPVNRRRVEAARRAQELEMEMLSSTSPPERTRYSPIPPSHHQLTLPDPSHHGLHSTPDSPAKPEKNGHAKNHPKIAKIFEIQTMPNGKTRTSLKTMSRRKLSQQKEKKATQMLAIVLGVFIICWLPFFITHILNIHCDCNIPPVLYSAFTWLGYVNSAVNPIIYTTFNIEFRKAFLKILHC
Procedure: Assay for D2 and D4 Receptor Binding Activity
Pellets of COS cells containing recombinantly produced D2 or D4 receptors from African Green monkey are used for the assays. The sample is homogenized in 100 volumes (w/vol) of 0.05 M Tris HCl buffer at 4° C. and pH 7.4. The sample is then centrifuged at 30,000× g and resuspended and rehomogenized. The sample is again centrifuged as described above and the final tissue sample is frozen until use. The tissue is resuspended 1:20 (wt/vol) in 0.05 M Tris HCl buffer containing 100 mM NaCl.
Incubations are carried out at […] and contain 0.4 ml of tissue sample, 0.5 nM ^3H-YM 09151-2 (Nemonapride, cis-5-Chloro-2-methoxy-4-(methylamino)-N-(2-methyl-2-(phenylmethyl)-3-pyrrolidinyl)benzamide)and the test compound in a total incubation of 1.0 ml. Nonspecific binding is defined as that binding found in the presence of 1 mM spiperone; without further additions, nonspecific binding is less than 20% of total binding. Binding characteristics of examples of the invention for the D2 and D4 receptor subtypes are shown in Table 2 for […].

| Compound | melting point | Ki (D2 receptors) |
| --- | --- | --- |
| Fc1cnc(N2CCN(CCNC3=Nc4ccccc4OC3)CC2)nc1 (as salt: fumarate) [Compound 6, 3-(1-[2-{(4-[5-Fluoropyrimidin-2-yl])piperazin-1-yl}]ethyl)amino-2H-1,4-benzoxazine fumarate] | 163 to 164 °C | – |
| c1cnc(N2CCN(CCCCNC3=Nc4ccccc4OC3)CC2)nc1 [Compound 1, 3-(1-[4-{(4-Pyrimidin-2-yl)piperazin-1-yl}]butyl) amino-2H-1,4-benzoxazine Difumarate] | – | > 1000 nM |
| c1cnc(N2CCN(CCCNC3=Nc4ccccc4SC3)CC2)nc1 [Compound 4] | – | > 100 nM |
| Fc1cnc(N2CCN(CCNC3=Nc4ccccc4OC3)CC2)nc1 [Compound 6, 3-(1-[2-{(4-[5-Fluoropyrimidin-2-yl])piperazin-1-yl}]ethyl)amino-2H-1,4-benzoxazine fumarate] | – | > 100 nM |
